Measurements: patent publication US5773438A, “Synthetic matrix metalloprotease inhibitors and use thereof” (Glycomed Incorporated, priority 1994, dated 1998)

Key:
[1] = system: PdiBu-Induced Epidermal Hyperplasia; test: PdiBu-induced epidermal hyperplasia mouse model (psoriasis); format: in vivo, hairless mice
Protocol: The phorbol ester, PdiBu (20 nmol in 20 μl if acetone) was applied to both ears of hairless mice (h/h) (approximately 1 cm^2 each). The test compounds (in total volume of 20 μl) were then applied to the right ear immediately (15 to 30 min) following PdiBu. The left ear of each animal received an equivalent amount (20 μl) of vehicle. Test compounds (and vehicle) were reapplied at 6 and 18 hours following PdiBu. Treatment times were staggered to allow exact time intervals to be obtained. At 30 hours after PdiBu, animals were anesthetized, and ear thickness values were obtained using a microcaliper. The weights of punch biopsies (6mm) were then obtained. Histology was performed on selected samples taken at 30 hours.
Left ear in each animal served as vehicle-treated controls (PdiBu+ETOH). Thus, the controls for this series include: 1) Untreated controls; 2) PdiBu plus vehicle alone (included for each mouse tested); 3) PdiBu plus AHA; 4) PdiBu plus Lidex® as a positive control.

MMPs = conditions: cited from earlier work

SMILES: CC(=O)NO [AHA, acetohydroxamic acid, reference compound]
- ear thickness (AHA control) ([1]; PdiBu + AHA, 0.53 μmol/ear at 0.25, 6.0 and 24 hours): 36.8 ± 1.3 inch × 10^-3
- biopsy weight (AHA control) ([1]; PdiBu + AHA, 0.53 μmol/ear at 0.25, 6.0 and 24 hours, in mg): 24.1 ± 1.2
- ear thickness (positive control section) ([1]; Positive Control: Lidex (fluocinonide) section, single experiment): 15.8 ± 0.4
- biopsy weight (positive control section) ([1]; Positive Control: Lidex (fluocinonide) section, single experiment, in mg): 9.7 ± 0.3
- effect on PdiBu-induced ear thickness ([1]; topical): did not alter
- effect on PdiBu-induced increase in punch biopsy weight ([1]; topical): did not alter
- inhibitory effects on MMPs (MMPs): devoid of inhibitory effects on MMPs
